Patent publication US7098215B2, “Nitrogenous compounds and antiviral drugs containing the same” (Kureha Chemical Industry Co., Ltd., priority 2000, dated 2006)

Experiments:
[1] = test system: HIV-1IIIB infected MT-4 cells; assay: Anti-HIV activity: protection of HIV-1IIIB infected MT-4 cells, MTT method; type: cell-based; details: MOI 0.01, culture for 5 days, concentration inhibiting 50% of cytotoxicity due to HIV infection
Experimental: HIV-1IIIB infected MT-4 cells were added to 96-well microtiter plates (3.0×10^4/well, MOI (Multiplicity of infection): 0.01), together with test compounds at different concentrations immediately after the infection. After culture for 5 days in a carbon dioxide incubator at 37° C., the number of surviving cells was counted by MTT (tetrazolium) method (Pawels et al., J. Virol. Methods, 20, 309-321, 1988).

ICR male mice = assay: Acute toxicity in ICR mice, intraperitoneal administration; type: in vivo; details: 3 per group, 50 mg/kg intraperitoneally, twice a day, for four days, number of dead animals after 5 days
Experimental: Acute toxicity of the antiviral drug was examined. Three groups of 7 week-old, ICR male mice, each group consisting of 3 mice, were bred for one week. The compounds prepared in the Examples, dissolved in a physiological saline solution or distilled water, were intraperitoneally administered at a dose of 50 mg/kg, twice a day, for four days. After 5 days, the number of dead animals was examined.

Row | Compound | EC50 [1] | Dead mouse (ICR male mice)
1 | Cn1cccc1CNCCC[C@H](NC(=O)c1ccc(CNCc2ccccn2)cc1)C(=O)NCc1cccc2ccccc12 [Compound No. 5, (S)-2-(4-(N-2-picolylaminomethyl)benzoylamino)-5-((1-methylpyrrol-2-ylmethyl)amino)valeric acid 1-naphthalenemethylamide] | 804 nM | 
2 | O=C(N[C@@H](CCCNC1CCCc2cccnc21)C(=O)NCc1cccc2ccccc12)c1ccc(CNCc2ncc[nH]2)s1 (stereo partly drawn) [Compound No. 16, (2S)-2-(5-(N-(imidazol-2-ylmethyl)aminomethyl)thiophene-2-carbonylamino)-5-(5,6,7,8-tetrahydroquinolin-8-yl)aminovaleric acid 1-naphthalenemethylamide] | 633 nM | 
3 | O=C(N[C@@H](CCCNCc1ncc[nH]1)C(=O)NCc1cccc2ccccc12)c1ccc(CNCc2ncc[nH]2)cc1 [Compound No. 21, (S)-2-(4-((imidazol-2-ylmethyl)aminomethyl)benzoylamino)-5-((imidazol-2-ylmethyl)amino)valeric acid 1-naphthalenemethylamide] | 828 nM | 
4 | Cn1cccc1CNCCC[C@H](NC(=O)c1ccc(CNCc2nccn2C)cc1)C(=O)NCc1cccc2ccccc12 [Compound No. 30, (S)-2-(4-((1-methylimidazol-2-ylmethyl)aminomethyl)benzoylamino)-5-((1-methylpyrrol-2-ylmethyl)amino)valeric acid 1-naphthalenemethylamide] | 662 nM | 
5 | O=C(N[C@@H](CCCNC1CCCc2cccnc21)C(=O)NCc1cccc2ccccc12)c1ccc(CNCc2ncc[nH]2)cc1 (stereo partly drawn) [Compound No. 39, (2S)-2-(4-((N-imidazol-2-ylmethyl)aminomethyl)benzoylamino)-5-(5,6,7,8-tetrahydroquinolin-8-ylamino)valeric acid 1-naphthalenemethylamide] |  | 0/3
6 | O=C(N[C@@H](CCCNC1CCCc2cccnc21)C(=O)NCc1cccc2ccccc12)c1ccc(CNCc2ncc[nH]2)c2ccccc12 (stereo partly drawn) [Compound No. 41, (2S)-2-(4-((N-imidazol-2-ylmethyl)aminomethyl)naphthoylamino)-5-(5,6,7,8-tetrahydroquinolin-8-ylamino)valeric acid 1-naphthalenemethylamide] | 35 nM | 0/3
7 | NC(N)=NCCC[C@H](NC(=O)c1ccc(CNCc2ccccn2)cc1)C(=O)NCc1cccc2ccccc12 [Compound No. 43, N^α-(4-(N-2-picolylaminomethyl)benzoyl)-L-arginine 1-naphthalenemethylamide] | 118 nM | 
8 | N=C(N)NCCC[C@H](NC(=O)c1ccc(CNCc2ccccn2)c2ccccc12)C(=O)NCc1cccc2ccccc12 [Compound No. 44, N^α-(4-(N-2-picolylaminomethyl)naphthoyl)-L-arginine 1-naphthalenemethylamide] | 126 nM | 
9 | C[C@H](NC(=O)[C@H](CCCNC(=N)N)NC(=O)c1ccc(CNCc2ncc[nH]2)c2ccccc12)c1cccc2ccccc12 [Compound No. 49, N^α-(4-(imidazol-2-ylmethyl)aminomethylnaphthoyl)-L-arginine(1′S)-(1′-(1-naphthyl)ethyl)amide] | 86 nM | 0/3
10 | N=C(N)NCCC[C@H](NC(=O)c1ccc(CNCc2ncc[nH]2)cc1)C(=O)NCc1cccc2ccccc12 [Compound No. 53, N^α-(4-(imidazol-2-ylmethyl)aminomethylbenzoyl)-L-arginine 1-naphthalenemethylamide] | 150 nM | 
11 | C[C@H](NC(=O)[C@H](CCCNC1CCCc2cccnc21)NC(=O)c1ccc(CNCc2ncc[nH]2)c2ccccc12)c1cccc2ccccc12 (stereo partly shown) [Compound No. 57] | 82 nM | 0/3
12 | O=C(N[C@@H](CCCNCc1ccccn1)C(=O)NCc1cccc2ccccc12)c1ccc(CNCc2ccccn2)cc1 [Compound No. 60, (S)-2-(4-(N-2-picolylaminomethyl)benzoylamino)-5-(N-2-picolylamino)valeric acid 1-naphthalenemethylamide] | 158 nM | 
13 | O=C(N[C@@H](CCNCc1ccccn1)C(=O)NCc1cccc2ccccc12)c1ccc(CNCc2ccccn2)cc1 [Compound No. 61, (S)-2-(4-(N-2-picolylamino)methylbenzoylamino)-4-(N-2-picolylamino)butyric acid 1-naphthalenemethylamide] | 2620 nM | 
14 | O=C(N[C@@H](CCCNC1CCCc2cccnc21)C(=O)NCc1cccc2ccccc12)c1ccc(CNC2CCCc3cccnc32)cc1 (stereo partly drawn) [Compound No. 64, (2S)-2-(4-((5,6,7,8-tetrahydroquinolin-8-yl)aminomethyl)benzoylamino)-5-((5,6,7,8-tetrahydroquinolin-8-yl)amino)valeric acid 1-naphthalenemethylamide] | 114 nM | 
15 | O=C(N[C@@H](CCCNC1CCCc2cccnc21)C(=O)NCc1cccc2ccccc12)c1ccc(CNCc2ccccn2)cc1 (stereo partly drawn) [Compound No. 65, (2S)-2-(4-(N-2-picolylaminomethyl)benzoylamino)-5-((5,6,7,8-tetrahydroquinolin-8-yl)amino)valeric acid 1-naphthalenemethylamide] | 93 nM | 0/3
16 | C[C@H](NC(=O)[C@H](CCCNC1CCCc2cccnc21)NC(=O)c1ccc(CNCc2ccccn2)nc1)c1cccc2ccccc12 (stereo partly drawn) [Compound No. 83, (2S)-2-(2-(N-2-picolylaminomethyl)pyridin-5-ylcarbonyl)amino-5-(5,6,7,8-tetrahydroquinolin-8-yl)aminovaleric acid (1′S)-1′-(1-naphthyl)ethylamide] | 121 nM | 
17 | C[C@H](NC(=O)[C@H](CCCNC1CCCc2cccnc21)NC(=O)c1ccc(CNCc2ccccn2)c2ccccc12)c1cccc2ccccc12 (stereo partly drawn) [Compound No. 85, (2S)-2-(4-(N-2-picolylaminomethyl)naphthoyl)amino-5-(5,6,7,8-tetrahydroquinolin-8-yl)aminovaleric acid (1′S)-1′-(1-naphthyl)ethylamide] | 29 nM | 
18 | C[C@H](NC(=O)[C@H](CCCNC1CCCc2cccnc21)NC(=O)c1ccc(CNCc2ccccn2)cc1)c1cccc2ccccc12 (stereo partly drawn) [Compound No. 91, (2S)-2-(4-(N-2-picolylaminomethyl)benzoyl)amino-5-(5,6,7,8-tetrahydroquinolin-8-yl)aminovaleric acid (1′S)-1′-(1-naphthyl)ethylamide] | 138 nM | 
19 | O=C(N[C@@H](CCCNC1CCCc2cccnc21)C(=O)NCCc1c[nH]c2ccccc12)c1ccc(CNCc2ccccn2)c2ccccc12 (stereo partly drawn) [Compound No. 92, (2S)-2-(4-(N-2-picolylaminomethyl)naphthoyl)amino-5-(5,6,7,8-tetrahydroquinolin-8-yl)aminovaleric acid 2-(3-indolyl)ethylamide] |  | 0/3
20 | C[C@H](NC(=O)[C@H](CCCNC(=N)N)NC(=O)c1ccc(CNCc2ncc[nH]2)cc1)c1cccc2ccccc12 [Compound No. 95, N^α-4-(N-2-(imidazol-2-ylmethyl)aminomethyl)benzoyl-L-arginine (1′S)-1′-(1-naphthyl)ethylamide] | 175 nM | 
21 | Cn1ccnc1CNCc1ccc(C(=O)N[C@@H](CCCNC2CCCc3cccnc32)C(=O)NCc2cccc3ccccc23)cc1 (stereo partly drawn) [Compound No. 96, (2S)-2-((1-methylimidazol-2-ylmethyl)aminomethyl)benzoylamino-5-(5,6,7,8-tetrahydroquinolyl-8-yl)aminovaleric acid 1-naphthalenemethyleneamide] | 34 nM | 0/3
22 | C[C@H](NC(=O)[C@H](CCCNC(=N)N)NC(=O)c1ccc(CNCc2nccn2C)c2ccccc12)c1cccc2ccccc12 [Compound No. 97, N^α-(4-((N-(1-methylimidazole-2-ylmethyl)amino)methyl)naphthalene-1-carbonyl)-L-arginine (1′S)-1′-(1-naphthyl)ethylamide] |  | 0/3
23 | C[C@H](NC(=O)[C@H](CCCNC(=N)N)NC(=O)c1ccc(CNCc2ccccn2)c2ccccc12)c1cccc2ccccc12 [Compound No. 99, N^α-(4-(N-2-picolylaminomethyl)naphthoyl)-L-arginine (1′S)-1′-(1-naphthyl)ethylamide] |  | 0/3
24 | C[C@H](NC(=O)[C@H](CCCNC1CCCc2cccnc21)NC(=O)c1ccc(CNCc2ncc[nH]2)cc1)c1cccc2ccccc12 (stereo partly shown) [Compound No. 106] | 25 nM | 0/3
25 | C[C@H](NC(=O)[C@H](CCCNC1CCCc2cccnc21)NC(=O)c1ccc(CNCc2nccn2C)cc1)c1cccc2ccccc12 (stereo partly shown) [Compound No. 107] | 35 nM | 0/3
26 | C[C@H](NC(=O)[C@H](CCCNC1=NCCN1)NC(=O)c1ccc(CNCc2ncc[nH]2)cc1)c1cccc2ccccc12 [Compound No. 110, (S)-2-(4-((N-imidazol-2-ylmethyl)aminomethyl)benzoyl)amino-5-(4,5-dihydroimidazol-2-yl)aminovaleric acid (1′S)-1′-(1-naphthyl)ethylamide] | 344 nM | 
27 | C[C@H](NC(=O)[C@H](CCCNC1=NCCCN1)NC(=O)c1ccc(CNCc2ncc[nH]2)cc1)c1cccc2ccccc12 [Compound No. 112, (S)-2-(4-((N-imidazol-2-ylmethyl)aminomethyl)benzoyl)amino-5-(3,4,5,6-tetrahydropyrimidine-2-yl)aminovaleric acid (1′S)-1′-(1-naphthyl)ethylamide] | 880 nM | 
